{"source": "PubChem BioAssay (NCI)", "note": "Where “and” joins values, the source holds several entries; their conditions need not be identical. Equal entries are not always repeated.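 Protocol summary: plate cells (96-well), add compound at 5 concentrations, incubate 48 h, interpolate endpoints linearly. GI50 is the concentration that inhibits growth by half. TGI: total growth inhibition.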 Where a SMILES comes first, the peptide text is derived from it. [ ]: non-standard residue; d: D form. The star is where a group is joined. Decanoyl = CCCCCCCCCC(=O)*; Leu(ol) = CC(C)C[C@H](N)CO; Iva = CC[C@](C)(N)C(=O)O; Aib = CC(C)(N)C(=O)O"}
{"tested_on": "MDA-MB-468 breast", "test": "growth of human tumour cells (NCI), 48 h"}
{"compound": "O=c1c2c([nH]c3ccccc13)CCCC2", "GI50": "16700 nM", "TGI": "> 100000 nM"}
{"compound": "O=C(Nc1cccc(-n2ccc3c(NC(=O)c4ccccc4)nccc32)c1)Nc1ccc(Cl)c(C(F)(F)F)c1", "GI50": "257 nM", "TGI": "3360 nM"}
{"compound": "CCCCCCCCCC(=O)NC(C)(C)C(=O)N1CCC[C@H]1C(=O)N[C@@H](CC(C)C)C(=O)N[C@@](C)(CC)C(=O)N[C@@H](CCC(N)=O)C(=O)N[C@H](CCC(N)=O)C(=O)NC(C)(C)C(=O)NC(C)(C)C(=O)N[C@@H](CCC(N)=O)C(=O)N[C@H](CC(C)C)C(=O)N[C@H](CO)CC(C)C", "note": "(Decanoyl-[Aib]PL[Iva]Q[dQ][Aib][Aib]Q[dL][Leu(ol)])", "GI50": "1790 nM", "TGI": "3340 nM"}
{"compound": "C=C1CC2(OC1=O)C(=O)N(C)c1ccc(I)cc12", "note": "(centres undefined)", "GI50": "537 nM", "TGI": "2760 nM"}
{"compound": "C#Cc1ccc(NC(=O)c2ccc(/C=C/C(=O)c3nccn3C)cc2)c(F)c1", "GI50": "1240 nM", "TGI": "4420 nM"}
{"compound": "O=[N+]([O-])c1ccc(C(Br)c2ccc([N+](=O)[O-])cc2)cc1", "GI50": "11500 nM", "TGI": "25900 nM"}
{"compound": "COc1cccc2c1C(=O)c1c(O)c3c(c(O)c1C2=O)CC(O)(/C(C)=N/NC(=O)CCCCC(=O)N/N=C(\\C)C1(O)Cc2c(O)c4c(c(O)c2C(OC2CC(N)C(O)C(C)O2)C1)C(=O)c1c(OC)cccc1C4=O)CC3OC1CC(N)C(O)C(C)O1", "note": "(centres undefined)", "GI50": "93.5 nM", "TGI": "251 nM"}
{"compound": "COc1ncc(-c2ccc3nccc(C#CCCCCC(=O)O)c3c2)cc1NS(=O)(=O)c1ccc(F)cc1F", "GI50": "132 nM", "TGI": "1900 nM"}
{"compound": "CCCSc1ccc2nc(NC(=O)OC)[nH]c2c1", "GI50": "210 nM", "TGI": "702 nM"}
{"compound": "COc1cc(C(=O)c2c(-c3ccccc3)oc3c(OC)cccc23)cc(OC)c1O", "GI50": "936 nM", "TGI": "7220 nM"}
{"compound": "C=CCn1c(SCC(=O)Nc2ccc(C(=O)/C=C/c3cc(OC)c(OC)c(OC)c3)cc2)nnc1-c1ccc(Cl)cc1", "GI50": "3470 nM", "TGI": "26600 nM"}
{"compound": "CCNCCCn1c2c(c3ccc(F)cc3c1=O)C(=O)c1cc(OC)cnc1-2", "GI50": "139 nM", "TGI": "312 nM"}
{"compound": "COc1ccc(-c2c(-c3cc(OC)c(OC)c(OC)c3)nc3sc(C4CC4)nn23)cc1OC", "GI50": "1900 nM", "TGI": "31400 nM"}
{"compound": "COc1cc(/C=C/C(=O)c2ccc(Nc3nc(Nc4ccc(F)cc4)nc(Nc4ccc(Cl)cc4)n3)cc2)cc(OC)c1OC", "GI50": "1340 nM", "TGI": "3750 nM"}
{"compound": "CCOc1ccc(C(=O)Nc2ncc(Cc3ccc(F)cc3)s2)cc1", "GI50": "266 nM", "TGI": "> 100000 nM"}
{"compound": "Brc1ccc(SCN(CSc2ccc(Br)cc2)Cc2ccccc2)cc1", "GI50": "6450 nM", "TGI": "30600 nM"}
{"compound": "COC1=CC(=O)c2c(ccc3ncnc(N)c23)C1=O", "GI50": "1140 nM", "TGI": "2770 nM"}
{"compound": "COC(=O)[C@@H](C)C[C@H](Cc1ccccc1)NC(=O)c1cccc([C@@H](C[C@H](C(C)C)N(C)C(=O)[C@@H](NC(=O)[C@H]2CCCCN2C)C2CC2)OC(C)=O)n1", "GI50": "3.33 nM", "TGI": "33300 nM and > 100000 nM"}
{"compound": "CCOC(=O)c1ccc2c(c1)[n+](=O)c(C(=O)C1CCCS1)c(C(F)(F)F)n2[O-]", "note": "(centres undefined)", "GI50": "250 nM", "TGI": "967 nM"}
{"compound": "O=C(Nc1ccc(-n2cc(-c3ccncc3)c(-c3ccc(O)c(Cl)c3)n2)cc1)c1cc(C(F)(F)F)cc(C(F)(F)F)c1", "GI50": "6060 nM", "TGI": "> 25000 nM"}
{"compound": "COc1ccc(-c2nnc(COc3ccc(Cl)cc3Cl)o2)cc1OC", "GI50": "7320 nM", "TGI": "54400 nM"}
{"compound": "Nc1n[n+](=O)c2ccccc2n1O", "GI50": "19600 nM", "TGI": "67000 nM"}
{"compound": "Cn1c(=O)n(CCCO)c(=O)c2c1nc(Oc1cccc(OC(F)(F)F)c1)n2Cc1ccc(Cl)cc1", "GI50": "12900 nM", "TGI": "29900 nM"}
{"compound": "CC1(C)CCC2(CC1)N[C@@H](C(=O)N[C@@H]1CC[C@@H](C(N)=O)OC1)[C@H](c1ccnc(Cl)c1F)[C@]21C(=O)Nc2cc(Cl)ccc21", "GI50": "2240 nM", "TGI": "5630 nM"}
{"compound": "Oc1ccc(CSc2nnc(-c3ccc(Cl)cc3)n2-c2ccccc2)c2cccnc12", "GI50": "1190 nM", "TGI": "> 100000 nM"}
{"compound": "C1=C/COCc2cc(ccc2OCCN2CCCC2)Nc2nccc(n2)-c2cccc(c2)COC/1", "GI50": "396 nM and 562 nM", "TGI": "1480 nM and 2010 nM"}
{"compound": "C[CH2][Sn]([CH2]C)([O]C(=O)c1cccc(OC)c1)[O][Sn]([CH2]C)([CH2]C)[O]C(=O)c1cccc(OC)c1", "GI50": "5530 nM", "TGI": "20800 nM"}
{"compound": "Cc1c([C@H](C(Cl)Cl)[C@H](O)[C@H]2C[C@H](C)C(=O)O2)ccc2c1C(=O)[C@H]1[C@H]2C[C@@H](Br)[C@@]23O[C@@H](CO[C@H]2O)CC13C", "note": "(some centres undefined)", "GI50": "129 nM", "TGI": "922 nM"}
{"compound": "C=C1C(=O)O[C@H]2[C@H]1CC/C(CNC(=O)c1cccc3ccccc13)=C\\CC[C@@]1(C)O[C@@H]21", "GI50": "1380 nM", "TGI": "4240 nM"}
{"compound": "C=C1c2c(C)nn(-c3ccc(OC)cc3)c2N(C)C23C[C@@H]1C1(C)c4c(C)nn(-c5ccc(OC)cc5)c4N(C)C(C)(C[C@H]12)C3", "note": "(some centres undefined)", "GI50": "2500 nM", "TGI": "12800 nM"}
{"compound": "COc1cc(/C=C/C(=O)Nc2ccc3c(c2)/C(=C\\c2cccn2C)C(=O)N3)cc(OC)c1OC", "GI50": "3390 nM", "TGI": "25200 nM"}
{"compound": "COc1ccc2c(c1)oc1c(C)c3c(c(C)c12)C(=O)N(N)C3=O", "GI50": "> 100000 nM", "TGI": "> 100000 nM"}
{"compound": "N#Cc1c(-c2ccc(Cl)cc2)csc1NC(=O)Nc1ccc(Cl)c(C(F)(F)F)c1", "GI50": "186 nM", "TGI": "1510 nM"}
{"compound": "NS(=O)(=O)c1ccc(N=Cc2c(O)[nH]c3ccc4ncsc4c23)cc1", "GI50": "488 nM and 472 nM", "TGI": "1140 nM and 1080 nM"}
{"compound": "O=C(/C=C/c1cc2ccccc2[nH]c1=O)c1ccc(Cl)cc1", "GI50": "17400 nM", "TGI": "35200 nM"}
{"compound": "O=C(NC(=S)Nc1ccccn1)c1ccccc1", "GI50": "12500 nM", "TGI": "> 100000 nM"}
{"compound": "N#C/C(=C\\c1cn(Cc2ccccc2)c2ccccc12)C(=O)Nc1ncc(Cc2ccccc2Cl)s1", "GI50": "1840 nM", "TGI": "4680 nM"}
